Literature values, collected in patent US12472158B2, “Methods of treating trigeminal nerve pain” (Vanderbilt University, priority 2019, dated 2025).

How the values were obtained:
[1] = tested on: contraction of the nictitating membrane in cats; details: i.v., dose giving 50% reduction of the nictitating membrane contraction
[2] = tested on: goat model; details: for duration of antinociceptive effect: intrathecal
[3] = tested on: rat model
[4] = tested on: subarachnoid space; details: 75 mcg in 15 μl saline, intrathecal route
[5] = molecular target: T1, α-2A adrenergic receptor (Homo sapiens, UniProt P08913); details: α-2A vs α-2B and α-2C
T1 sequence (P08913 1-465): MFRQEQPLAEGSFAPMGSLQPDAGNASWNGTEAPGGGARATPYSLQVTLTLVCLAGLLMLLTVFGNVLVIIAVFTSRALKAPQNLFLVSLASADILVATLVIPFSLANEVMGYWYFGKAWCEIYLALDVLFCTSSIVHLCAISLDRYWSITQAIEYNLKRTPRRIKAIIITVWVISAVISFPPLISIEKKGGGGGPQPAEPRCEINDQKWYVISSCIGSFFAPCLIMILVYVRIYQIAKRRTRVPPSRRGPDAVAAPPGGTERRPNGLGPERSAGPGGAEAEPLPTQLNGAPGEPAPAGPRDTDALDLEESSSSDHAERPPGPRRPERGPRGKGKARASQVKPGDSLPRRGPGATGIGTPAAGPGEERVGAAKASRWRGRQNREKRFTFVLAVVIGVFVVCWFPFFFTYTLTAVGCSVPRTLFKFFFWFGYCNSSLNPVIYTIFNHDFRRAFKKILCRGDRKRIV

[6] = among the alpha-2 agonists
[7] = lidocaine alone (active control group); medical literature and expert opinion

SMILES: Cc1cccc(C)c1CC(=O)NC(=N)N [2,6-dimethylphenyl-acetyl-guanidine]
- Reduction of the neck sympathicus stimulus ED50 [1]: 1.0 mg/kg

SMILES: Clc1cccc(Cl)c1N=C1NCCN1 [clonidine]
- duration of antinociceptive effect [2]: 5 h
- time for anti-nociceptive effect to decline to baseline ([3]; rat model, injection 50 mcg): ≤ 4 h

SMILES: Cl.N=C(N)NC(=O)Cc1c(Cl)cccc1Cl [guanfacine, N-amidino-2-(2,6-dichlorophenyl) acetamide]
- elimination from spinal cord tissue ([2]; compared with clonidine): slower elimination
- duration of antinociceptive effect [2]: 8 h
- rate of elimination from spinal cord tissue ([3]; compared to clonidine): lower rate of elimination
- duration of anti-nociceptive effect ([3]; rat model, intrathecal, both 25 mcg and 50 mcg): greater than 18 h
- toxicity in the subarachnoid space [4]: nontoxic
- elimination half-life (in vivo): ~17 h
- oral bioavailability (oral): around 80%
- renal excretion (share of elimination): ~50%
- affinity for α-2A adrenergic receptor compared to α-2B and α-2C adrenergic receptor [5]: 15- to 20 fold
- rate of sedation [6]: lowest rate of sedation
- Reduction of the neck sympathicus stimulus ED50 [1]: 0.3 mg/kg

SMILES: CCN(CC)CC(=O)Nc1c(C)cccc1C [lidocaine]
- mean duration of pain relief [7]: approximately 140 minutes
